From US20230310464A1, “USE OF C[…] THE TREATMENT OF SEIZURES ASSOCIATED WITH RARE […] SYNDROMES RELATED TO BRAIN INJURY” (GW Research Limited, priority 2020, published 2023)

Test system: seizures associated with hypoxic ischaemic encephalopathy (HIE) or anoxia at birth
Assay: Open label, expanded-access program: seizure frequency recorded by caregivers in a diary, relative to baseline
Assay type: in vivo, human
Parameters: reduction in tonic seizures over the treatment period / reduction in spasms over the treatment period / reduction in absence seizures over the treatment period / reduction in tonic-clonic seizures over the treatment period / reduction in myoclonic seizures over the treatment period: concentration or dose not given beside the values; Seizure frequency, Tonic / Seizure frequency, Spasm / Seizure frequency, Absence / Seizure frequency, Tonic-clonic / Seizure frequency, Focal with impairment / Seizure frequency, Atonic / Seizure frequency, Focal without impairment / Seizure frequency, Focal secondary generalisation / Seizure frequency, Myoclonic: unit not given here
Description: Subjects were required to be on one or more AEDs at stable doses for a minimum of two weeks prior to baseline and to have stable vagus nerve stimulation (VNS) settings and ketogenic diet ratios for a minimum of four weeks prior to baseline.
Dose was then increased weekly by 5 mg/kg/day to a goal of 20 to 25 mg/kg/day.
Modifications were made to concomitant AEDs as per clinical indication.
Seizure frequency, intensity, and duration were recorded by caregivers in a diary during a baseline period of at least 28 days. Changes in seizure frequency relative to baseline were calculated after at least 2 weeks and at defined timepoints of treatment.
Patients may be defined as responders if they had more than 50% reduction in seizure frequency compared to baseline. The percent change in seizure frequency was calculated as follows: […]
The percent change of seizure frequency may be calculated for any time interval where seizure number has been recorded. For the purpose of this example the percent change of seizure frequency for the end of the treatment period was calculated as follows: […]

[1] = Patient 1, 2 weeks, CBD 8.3 mg/kg/day
[2] = Patient 1, 4 weeks, CBD 20.8 mg/kg/day
[3] = Patient 1, 8 weeks, CBD 25.2 mg/kg/day
[4] = Patient 1, 16 weeks, CBD 23.4 mg/kg/day
[5] = Patient 1, 24 weeks, CBD 22.9 mg/kg/day
[6] = Patient 1, 36 weeks, CBD 25.7 mg/kg/day
[7] = Patient 1, 48 weeks, CBD 21.8 mg/kg/day
[8] = Patient 1, treated for 48 weeks, vs baseline
[9] = Patient 2, 4 weeks, CBD 20.0 mg/kg/day
[10] = Patient 2, 8 weeks, CBD 25.0 mg/kg/day
[11] = Patient 2, 16 weeks, CBD 25.0 mg/kg/day
[12] = Patient 2, 24 weeks, CBD 25.0 mg/kg/day
[13] = Patient 2, 36 weeks, CBD 25.0 mg/kg/day
[14] = Patient 2, 48 weeks, CBD 25.0 mg/kg/day
[15] = Patient 2, 60 weeks, CBD 25.0 mg/kg/day
[16] = Patient 2, 72 weeks, CBD 25.0 mg/kg/day
[17] = Patient 2, 84 weeks, CBD 25.0 mg/kg/day
[18] = Patient 2, treated for 84 weeks, vs baseline
[19] = Patient 3, 4 weeks, CBD 5.0 mg/kg/day
[20] = Patient 3, 8 weeks, CBD 20.0 mg/kg/day
[21] = Patient 3, 12 weeks, CBD 25.0 mg/kg/day
[22] = Patient 3, 16 weeks, CBD 25.0 mg/kg/day
[23] = Patient 3, 24 weeks, CBD 30.0 mg/kg/day
[24] = Patient 3, 36 weeks, CBD 40.0 mg/kg/day
[25] = Patient 3, 48 weeks, CBD 50.0 mg/kg/day
[26] = Patient 3, 72 weeks, CBD 50.0 mg/kg/day
[27] = Patient 3, 84 weeks, CBD 50.0 mg/kg/day
[28] = Patient 3, 96 weeks, CBD 50.0 mg/kg/day
[29] = Patient 3, 108 weeks, CBD 50.0 mg/kg/day
[30] = Patient 3, 120 weeks, CBD 50.0 mg/kg/day
[31] = Patient 3, 132 weeks, CBD 50.0 mg/kg/day
[32] = Patient 4, 4 weeks, CBD 5.0 mg/kg/day
[33] = Patient 4, 8 weeks, CBD 5.0 mg/kg/day
[34] = Patient 4, 12 weeks, CBD 10.0 mg/kg/day
[35] = Patient 4, 24 weeks, CBD 15.0 mg/kg/day
[36] = Patient 4, 36 weeks, CBD 15.0 mg/kg/day

Structure (SMILES): C=C(C)[C@@H]1CCC(C)=C[C@H]1c1c(O)cc(CCCCC)cc1O [CBD, cannabidiol]
- Seizure frequency, Spasm [1]: 108.0
- Seizure frequency, Tonic [1]: 1044.0
- Seizure frequency, Spasm [2]: 102.8
- Seizure frequency, Tonic [2]: 904.0
- Seizure frequency, Spasm [3]: 50.8
- Seizure frequency, Tonic [3]: 770.0
- Seizure frequency, Spasm [4]: 78.0
- Seizure frequency, Tonic [4]: 764.8
- Seizure frequency, Spasm [5]: 48.0
- Seizure frequency, Tonic [5]: 917.2
- Seizure frequency, Spasm [6]: 51.2
- Seizure frequency, Tonic [6]: 634.0
- Seizure frequency, Spasm [7]: 69.2
- Seizure frequency, Tonic [7]: 424.8
- reduction in spasms over the treatment period [8]: 44.2%
- reduction in tonic seizures over the treatment period [8]: 59.8%
- Seizure frequency, Absence [9]: 52.0
- Seizure frequency, Spasm [9]: 440.0
- Seizure frequency, Absence [10]: 52.0
- Seizure frequency, Spasm [10]: 600.0
- Seizure frequency, Absence [11]: 12.0
- Seizure frequency, Spasm [11]: 632.0
- Seizure frequency, Absence [12]: 24.0
- Seizure frequency, Spasm [12]: 580.0
- Seizure frequency, Absence [13]: 0
- Seizure frequency, Spasm [13]: 560.0
- Seizure frequency, Absence [14]: 0
- Seizure frequency, Spasm [14]: 490.0
- Seizure frequency, Absence [15]: 0
- Seizure frequency, Spasm [15]: 196.0
- Seizure frequency, Absence [16]: 0
- Seizure frequency, Spasm [16]: 300.0
- Seizure frequency, Absence [17]: 0
- Seizure frequency, Spasm [17]: 340.0
- reduction in absence seizures over the treatment period [18]: 100%
- reduction in spasms over the treatment period [18]: 41.4%
- Seizure frequency, Focal with impairment [19]: 43.0
- Seizure frequency, Tonic [19]: 193.0
- Seizure frequency, Tonic-clonic [19]: 2.0
- Seizure frequency, Focal with impairment [20]: 132.0
- Seizure frequency, Tonic [20]: 132.0
- Seizure frequency, Tonic-clonic [20]: 0
- Seizure frequency, Focal with impairment [21]: 38.0
- Seizure frequency, Tonic [21]: 123.0
- Seizure frequency, Tonic-clonic [21]: 0
- Seizure frequency, Focal with impairment [22]: 46.0
- Seizure frequency, Tonic [22]: 120.0
- Seizure frequency, Tonic-clonic [22]: 6.0
- Seizure frequency, Focal with impairment [23]: 51.2
- Seizure frequency, Tonic [23]: 122.0
- Seizure frequency, Tonic-clonic [23]: 4.8
- Seizure frequency, Tonic [24]: 124.8
- Seizure frequency, Tonic-clonic [24]: 20.0
- Seizure frequency, Focal with impairment [25]: 38.8
- Seizure frequency, Tonic [25]: 136.0
- Seizure frequency, Tonic-clonic [25]: 11.2
- Seizure frequency, Focal with impairment [26]: 53.0
- Seizure frequency, Tonic [26]: 94.7
- Seizure frequency, Tonic-clonic [26]: 4.0
- Seizure frequency, Focal with impairment [27]: 53.0
- Seizure frequency, Tonic [27]: 72.0
- Seizure frequency, Tonic-clonic [27]: 5.7
- Seizure frequency, Focal with impairment [28]: 46.3
- Seizure frequency, Tonic [28]: 70.0
- Seizure frequency, Tonic-clonic [28]: 11.6
- Seizure frequency, Focal with impairment [29]: 46.4
- Seizure frequency, Tonic [29]: 35.0
- Seizure frequency, Tonic-clonic [29]: 10.4
- Seizure frequency, Focal with impairment [30]: 62.8
- Seizure frequency, Tonic [30]: 46.8
- Seizure frequency, Tonic-clonic [30]: 9.8
- Seizure frequency, Focal with impairment [31]: 77.2
- Seizure frequency, Tonic [31]: 54.4
- Seizure frequency, Tonic-clonic [31]: 12.0
- Seizure frequency, Atonic [32]: 0
- Seizure frequency, Tonic [32]: 4.0
- Seizure frequency, Tonic-clonic [32]: 13.0
- Seizure frequency, Atonic [33]: 0
- Seizure frequency, Tonic [33]: 3.0
- Seizure frequency, Tonic-clonic [33]: 18.0
- Seizure frequency, Atonic [34]: 0
- Seizure frequency, Tonic [34]: 0
- Seizure frequency, Tonic-clonic [34]: 10.0
- Seizure frequency, Atonic [35]: 6.0
- Seizure frequency, Tonic [35]: 0
- Seizure frequency, Tonic-clonic [35]: 0.6
- Seizure frequency, Atonic [36]: 1.7
- Seizure frequency, Tonic [36]: 0
